The source of these data is patent US12649718B2, “Synthesis of n,n-dimethyltryptamine-type compounds, methods, and uses preliminary class 548” (CYBIN UK LTD, priority 2019, dated 2026).

A short description of data set [1]: Solubility in water (vessel cleaning note). Particulars: Stage 3 vessel cleaning information. It is filed as physicochemical.
The next data set concerns humans. The note with it: 0.05 mg/kg to 0.4 mg/kg; bolus injections or prolonged infusions; only mild to moderate adverse effects; cited from earlier work.
The conditions of data set [2]: hashed area of FIG. 2; cited from earlier work.
For data set [3] the following is noted: cited from earlier work.
In data set [4] the test system is individuals who have ingested 5-MeO-DMT. The note with it: cited from earlier work.
Where [5] appears, read: self-report, uncontrolled setting, Davis et al. 2018.

Structures are written as SMILES.

Turning to `CN(C)CCc1c[nH]c2ccccc12.O=C(O)/C=C/C(=O)O` [API, N,N-DMT fumarate], the Solubility in water result in data set [1] was “API highly soluble”.

Turning to `CN(C)CCc1c[nH]c2ccccc12` [DMT, N, N-dimethyltryptamine], the Tolerability result in the data set with humans is given as “well-tolerated”. Also, the “Effect site concentrations experienced as full dissociation from the external world” value in data set [2] is greater than 60 ng/mL.

Turning to `COc1ccc2[nH]cc(CCN(C)C)c2c1` [Mixture 5-MeO-DMT, 5-methoxy-N, N-dimethyltryptamine], the Half-life in data set [3] (rapidly metabolized, H-W. Shen et al. 2010) was 12 to 19 min. Further, in data set [3] (without coadministration alongside a monoamine oxidase inhibitor), the Oral bioavailability entry is reported as “not orally bioavailable”. The “Individuals with alcoholism or hazardous drinking reporting improvements” value in data set [4] (n=75 out of 113) was 66%. Besides, in data set [4] (setting [5]), the “Participants indicating symptoms improved: anxiety” value is listed as 69%, the “Participants indicating symptoms improved: depression” value is recorded as 77% and the “Participants indicating symptoms improved: post-traumatic stress disorder” value is listed as 79%.
